Data set [1] relates to S. aureus ATCC 25923. Put plainly: broth microdilution antimicrobial activity, S. aureus reference strain. It is filed as cell-based, Staphylococcus aureus. The conditions noted are these: for activity at 100 µM / IC50: Staphylococcus aureus; for activity at 100 µM: ATCC25923, 100 μM, growth relative to positive control, mean ± SD, read-out: Microbial growth, S. aureus; for IC50: ATCC25923, S. aureus ATCC 25923, mean [95% confidence interval]. The method, then:
(§1) Reference bacterial strains of Staphylococcus aureus (ATCC 25923), Escherichia coli (ATCC 25922), and Candida albicans (ATCC 10231) were used in this study as Gram-positive, Gram-negative, and fungal models, respectively. These reference strains were purchased from the American Type Culture Collection (ATCC, Manassas, VA, USA); bacterial cultures were routinely grown at 37 °C on 5% blood agar plate, while fungal cultures on Sabouraud Dextrose Agar (Biolife Italiana S.r.l., Milan, Italy).
(§2) The dry powder of the isatin derivatives was resuspended in dimethylsulfoxide (DMSO) at 20 mM and used as stock solutions. For biological investigations, compounds were used in the range 100–0.78 µM, and the solvent in the corresponding percentage range.
(§3) The antimicrobial activity of the compounds was assessed by a well-established broth microdilution procedure in microtiter plates and in compliance with the Clinical and laboratory Standard Institute (CLSI) guidelines (Clinical and Laboratory Standards Institute, Wayne, PA, USA). In short, microbial inocula were prepared at 0.5 McFarland in PBS and, subsequently, bacterial suspensions were diluted 1:200 in Mueller–Hinton broth (Sigma-Aldrich, St. Louis, MO, USA), while fungal inoculum was diluted 1:20 in RPMI-1640 medium (Gibco®, ThermoFisher Scientific Inc., Waltham, MA, USA), containing 2% glucose and 0.3% levo-glutamine buffered to pH 7.0 with 0.165 M 3-(N-morpholino)propanesulfonic acid (MOPS). A total of 100 µL of these microbial suspensions were introduced in a 96-well microplate and incubated with 100 µL of the compounds, two-fold serially diluted in the range of 100–0.19 µM. Positive controls (microbial suspensions in regular media), negative controls (only compounds), and solvent controls (microbial suspensions incubated with DMSO dilutions) were included in the tests. The plate was incubated at 37 °C for 24 h, and subsequently, the optical density at 630 nm (OD630nm) was spectrophotometrically measured. Each experiment was carried out with three technical replicates (i.e., three wells per sample) and repeated at least two times for statistical power. […] IC50 values, corresponding to the concentration of the compound giving rise to an inhibition of growth of 50%, were obtained by interpolation on dose–response curves generated by plotting the percentages of growth inhibition, relative to the positive control (set to 100% of growth), as a function of the tested concentrations (on a logarithm scale). Statistical analysis was carried out using GraphPad Prism version 9.4.1 for Windows (GraphPad Software, San Diego, CA, USA, www.graphpad.com).

Data set [2] concerns E. coli ATCC 25922. Put plainly: broth microdilution antimicrobial activity, E. coli reference strain. It is filed as cell-based, Escherichia coli. The note with it: Escherichia coli, ATCC25922; 100 μM; growth relative to positive control; mean ± SD; read-out: Microbial growth, E. coli. How it is done: as §1, §2, §3
(In general: Broth dilution looks for growth in wells or tubes with falling amounts of substance.)

Data set [3] relates to C. albicans ATCC 10231. Put plainly: broth microdilution antimicrobial activity, C. albicans reference strain. It is filed as cell-based, Candida albicans. The conditions noted are these: Candida albicans, ATCC10231; 100 μM; growth relative to positive control; mean ± SD; read-out: Microbial growth, C. albicans. The method, then: as §1, §2, §3
The nature of data set [4]: cell viability and proliferation assay (WST8/CCK-8). It is filed as cell-based. The conditions noted are these: African green monkey, Vero cells (ATCC CCL-81); Vero cells; mean [95% confidence interval]. How it is done: (§4) Vero cell line (ATCC CCL-81) was selected as the model system to assess the effect of the isatin hybrids on normal epithelial cells, and a previously established protocol was used with minor modifications. Briefly, cells were cultured in RPMI-1640 medium supplemented with 10% fetal bovine serum (FBS) (Carlo Erba Reagents, Milan, Italy), 100 U/mL penicillin, and 100 µg/mL streptomycin at 37 °C with 5% CO2. For experiments, cells were seeded into 96-well plates at 10^4 cells/well, and incubated at 37 °C for 24 h. Following washes with PBS, the cell monolayer was incubated with 100 µL of medium containing the 2-fold serial dilutions of the compounds. Both untreated cells and cells incubated with medium containing solvent dilutions were included in each experiment as controls. The cell viability was assessed by a WST8-based assay according to the manufacturer’s instructions (CCK-8, Cell Counting Kit-8, Dojindo Molecular Technologies, Rockville, MD, USA). After 48 h of incubation, culture medium was removed from each well, the monolayer was washed with PBS, and 100 µL of fresh medium containing 10 µL of CCK-8 solution were added. After 2 h at 37 °C, the OD450nm was read, and data were expressed as the percentage of the cell viability relative to the untreated controls. The CC50 was obtained from the corresponding dose–response curves generated, as previously reported for IC50 values.
In general terms: Tetrazolium dyes change colour on reduction, which living cells bring about.

The subject of data set [5] is Vero cell line (ATCC CCL-81). Described as above. It is filed as cell-based. The conditions noted are these: Chlorocebus sabaeus, Vero, 48 h; 100 μM; viability relative to untreated controls; mean ± SD; read-out: Cell proliferation, Vero. How it is done: as §4
Data set [6] relates to S. aureus ATCC 25923. Set-up: method as in PMID 36144518. The note with it: cited from earlier work.
In data set [7] the test system is E. coli ATCC 25922. Also noted: method as in PMID 36144518. The note with it: 100 μM; mean ± SD; cited from earlier work.
Data set [8] has as its system C. albicans ATCC 10231. Also noted: method as in PMID 36144518. The conditions noted are these: 100 μM; mean ± SD; cited from earlier work.
In data set [9] the test system is Vero cell line (ATCC CCL-81). Set-up: method as in PMID 36144518. The note with it: 100 μM; mean ± SD; cited from earlier work.

Read-outs that look alike come from different tables or passages of the source.

Usually IC50 stands for the concentration that gives 50% inhibition. The term CC50 denotes the concentration at which the toxic effect on the cells reaches its halfway point.

`O=C1Nc2ccc(F)cc2C1(c1c(Cl)nc2sccn12)c1c(Cl)nc2sccn12` [Compound 5, 3,3-bis(6-Chloroimidazo[2,1-b]thiazol-5-yl)-5-fluoroindolin-2-one]: the “SI (selectivity index, CC50/IC50)” value in data set [1] (CC50 Vero / IC50 S. aureus) is on record as 1.5. Besides, the activity at 100 µM in [1] is below 30%; in data set [2] it was 98.9 ± 1.4%; in data set [3] it was 102 ± 1.5%. Besides, in data set [1], the IC50 came out at 75.6 µM. Moreover, the CC50 at 48 h in data set [4] is 116 µM. Further, the viability at 100 µM in [5] was determined as 43.5 ± 3.3%.
Consider `COc1ccc2c(c1)C(c1c(Cl)nc3sccn13)(c1c(Cl)nc3sccn13)C(=O)N2` [Compound 6k], for which the “Microbial growth, S. aureus” value in data set [6] (100 μM, mean ± SD) is given as 43.4 ± 5.6%. For the same compound, the IC50 in data set [6] (S. aureus, lead compounds) was 80 µM. Further, the “Microbial growth, E. coli” value in data set [7] is reported as 102.7 ± 2.4%. The “Microbial growth, C. albicans” value in [8] is reported as 104.1 ± 1.9%. The “Cell proliferation, Vero” value in data set [9] was 70.9 ± 5.6%.
Consider `O=C1N(CC=Cc2ccccc2)c2ccccc2C1(c1c(Cl)nc2sccn12)c1c(Cl)nc2sccn12` [Compound 15, 3,3-bis(6-Chloroimidazo[2,1-b]thiazol-5-yl)-1-cinnamylindolin-2-one], for which the activity at 100 µM in data set [1] is below 30%; in data set [2] it was 69.5 ± 1.8%; in data set [3], 60.7 ± 1.7%. The same compound showed an IC50 in data set [1] of 90.1 µM. The compound also returned a CC50 at 48 h in data set [4] above 100 µM. The viability at 100 µM in data set [5] turned out to be 101 ± 1.5%.
